Assay results taken from ChEMBL document CHEMBL1201862, “PubChem BioAssay data set” (2004).
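The compound was tested at five concentrations on cells cultured in 96-well plates, with a 48-hour exposure period. GI50 = concentration required for 50% inhibition of growth.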 Active and inactive are the calls of the source. No stated cut-off is given here; in the data, active = GI50 up to about 1.1 µM and inactive = higher.

What was measured:
Experiment in all cases: NCI anticancer screen, dose series, 48 h
NCI-H23 = test system: NCI-H23
SF-268 = test system: SF-268
Hs-578T = test system: Hs-578T
NCI-H226 = test system: NCI-H226
A498 = test system: A498
SNB-75 = test system: SNB-75
SK-MEL-2 = test system: SK-MEL-2
M14 = test system: M14
NCI-H522 = test system: NCI-H522
OVCAR-4 = test system: OVCAR-4
RXF 393 = test system: RXF 393
HCT-116 = test system: HCT-116
HT-29 = test system: HT-29
UACC-257 = test system: UACC-257
UACC-62 = test system: UACC-62
SR = test system: SR
OVCAR-3 = test system: OVCAR-3
UO-31 = test system: UO-31
LOX IMVI = test system: LOX IMVI
SN12C = test system: SN12C

SMILES | GI50 (NCI-H23) | GI50 (SF-268) | GI50 (Hs-578T) | GI50 (NCI-H226) | GI50 (A498) | GI50 (SNB-75) | GI50 (SK-MEL-2) | GI50 (M14) | GI50 (NCI-H522) | GI50 (OVCAR-4) | GI50 (RXF 393) | GI50 (HCT-116) | GI50 (HT-29) | GI50 (UACC-257) | GI50 (UACC-62) | GI50 (SR) | GI50 (OVCAR-3) | GI50 (UO-31) | GI50 (LOX IMVI) | GI50 (SN12C)
CC(C)(C)c1ccc2c(c1)CNCCNCc1cc(C(C)(C)C)ccc1OCC1(CO2)COc2ccc(C(C)(C)C)cc2CNCCNCc2cc(C(C)(C)C)ccc2OC1 | 0.948 µM (active) | 1.78 µM (inactive) | 1.06 µM (active) | 1.55 µM (inactive) | 0.857 µM (active) | 1.51 µM (inactive) | 1.51 µM (inactive) | 467 nM (active) | 0.284 µM (active) | 1.53 µM (inactive) | 1.42 µM (inactive) | 0.288 µM (active) | 0.665 µM (active) | 1.54 µM (inactive) | 1.4 µM (inactive) | 0.129 µM (active) | 1.61 µM (inactive) | 1.8 µM (inactive) | 0.243 µM (active) | 0.404 µM (active)
C/C(=N\NC(=S)N1CCN(c2ccccn2)CC1)c1ncccn1 | < 0.0288 µM (active) | 0.0323 µM (active) | 1.87 µM (inactive) | 0.216 µM (active) | 2.07 µM (inactive) | 3.43 µM (inactive) | 0.31 µM (active) | 51.5 nM (active) | 0.0538 µM (active) | 0.205 µM (active) | 1.65 µM (inactive) | 0.00395 µM (active) | 0.0161 µM (active) | 0.0165 µM (active) | 0.0344 µM (active) | 0.0863 µM (active) |  | 0.993 µM (active) | 0.0986 µM (active) | 0.566 µM (active)
Cc1cccc(-n2c(C)nc3ccc(NC4OC(CO)C(O)C(O)C4O)cc3c2=O)c1 (configuration not stated) | > 100 µM (inactive) | > 100 µM (inactive) | > 100 µM (inactive) | > 100 µM (inactive) | > 100 µM (inactive) | > 100 µM (inactive) | 61 µM (inactive) |  | > 100 µM (inactive) | > 100 µM (inactive) | > 100 µM (inactive) | > 100 µM (inactive) | > 100 µM (inactive) | > 100 µM (inactive) | > 100 µM (inactive) | 50.7 µM (inactive) | > 100 µM (inactive) | > 100 µM (inactive) | > 100 µM (inactive) | > 100 µM (inactive)
Cc1cn(C2CC(O)C(COP(=O)(O)OC3CC(n4c[n+]([BH2-]C#N)c5c(=O)[nH]c(N)nc54)OC3CO)O2)c(=O)[nH]c1=O (configuration not stated) | > 100 µM (inactive) | > 100 µM (inactive) | > 100 µM (inactive) | > 100 µM (inactive) | > 100 µM (inactive) | > 100 µM (inactive) | > 100 µM (inactive) |  | > 100 µM (inactive) | > 100 µM (inactive) | > 100 µM (inactive) | > 100 µM (inactive) | > 100 µM (inactive) | > 100 µM (inactive) | > 100 µM (inactive) | > 100 µM (inactive) | > 100 µM (inactive) | > 100 µM (inactive) | > 100 µM (inactive) | > 100 µM (inactive)
c1ccc(-c2nc(-c3ccccc3)c(-c3ccccc3)[nH]2)cc1 | > 100 µM (inactive) | 55.2 µM (inactive) | 23.9 µM (inactive) | > 100 µM (inactive) | > 100 µM (inactive) | 75 µM (inactive) | > 100 µM (inactive) | > 100000 nM (inactive) | > 82.6 µM (inactive) | 85.9 µM (inactive) | > 100 µM (inactive) | 71.9 µM (inactive) | > 94.6 µM (inactive) | > 85.5 µM (inactive) | > 94.4 µM (inactive) | 17.5 µM (inactive) | > 100 µM (inactive) | > 100 µM (inactive) | > 100 µM (inactive) | > 87.5 µM (inactive)
